In ChEMBL document CHEMBL1921694, “Structure-based design of isoindoline-1,3-diones and 2,3-dihydrophthalazine-1,4-diones as novel B-Raf inhibitors” (Bioorg Med Chem Lett, 2011):

What follows are compounds tested against Serine/threonine-protein kinase B-raf (Homo sapiens, UniProt P15056) (assay: Inhibition of human recombinant his6-tagged B-Raf expressed in Sf9 cells assessed as inhibition of MEK1 phosphorylation after 60 mins).
Chain of Serine/threonine-protein kinase B-raf (P15056 whole entry): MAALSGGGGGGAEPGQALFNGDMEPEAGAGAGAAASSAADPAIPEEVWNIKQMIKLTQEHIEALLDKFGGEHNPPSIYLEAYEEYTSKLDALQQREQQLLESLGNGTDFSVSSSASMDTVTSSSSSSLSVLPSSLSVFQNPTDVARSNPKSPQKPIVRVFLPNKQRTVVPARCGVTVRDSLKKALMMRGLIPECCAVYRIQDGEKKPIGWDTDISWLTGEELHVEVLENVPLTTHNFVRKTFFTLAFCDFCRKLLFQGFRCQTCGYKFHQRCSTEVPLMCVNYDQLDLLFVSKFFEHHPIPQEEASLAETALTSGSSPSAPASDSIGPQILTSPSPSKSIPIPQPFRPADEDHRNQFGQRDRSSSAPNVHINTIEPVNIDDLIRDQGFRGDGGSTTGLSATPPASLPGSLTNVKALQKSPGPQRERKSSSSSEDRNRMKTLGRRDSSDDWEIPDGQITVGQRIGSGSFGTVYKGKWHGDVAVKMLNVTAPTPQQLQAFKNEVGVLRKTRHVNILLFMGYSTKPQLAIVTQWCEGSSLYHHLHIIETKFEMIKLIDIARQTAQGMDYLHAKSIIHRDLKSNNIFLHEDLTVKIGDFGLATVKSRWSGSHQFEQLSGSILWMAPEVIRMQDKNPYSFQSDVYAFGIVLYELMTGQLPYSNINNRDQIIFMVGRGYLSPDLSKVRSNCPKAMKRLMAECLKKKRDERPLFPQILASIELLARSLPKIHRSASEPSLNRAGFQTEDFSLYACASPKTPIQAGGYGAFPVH

Row | SMILES | IC50 [nM]
1 | NC(=O)c1ccc2[nH]cc(-c3cccc(O)c3)c2c1 | > 10000
2 | O=C1NC(=O)c2cc3c(-c4cccc(O)c4)c[nH]c3cc21 | 3470
3 | O=C1NC(=O)c2cc(Nc3cccc(O)c3)c(Nc3cccc(O)c3)cc21 | 338
4 | O=C1NC(=O)c2cc(Nc3cccc(O)c3)c(Nc3ccccc3)cc21 | 1680
5 | O=c1[nH][nH]c(=O)c2cc(Nc3cccc(O)c3)c(Nc3ccccc3)cc12 | 3770
6 | O=c1[nH][nH]c(=O)c2cc(Nc3cccc(O)c3)c(Nc3cccc(O)c3)cc12 | 290
7 | O=C(Nc1cccc(Nc2cc3c(cc2Cl)C(=O)NC3=O)c1)c1cccc(Cl)c1 | 117
8 | O=C(Nc1cccc(Nc2cc3c(cc2Cl)C(=O)NC3=O)c1)c1cccc(Br)c1 | 35
9 | O=C(Nc1cccc(Nc2cc3c(cc2Cl)C(=O)NC3=O)c1)c1cccc(I)c1 | 8
10 | O=C(Nc1cccc(Nc2cc3c(cc2Cl)C(=O)NC3=O)c1)c1cccc(C(F)(F)F)c1 | 10
11 | O=C(Nc1cccc(Nc2cc3c(cc2Cl)C(=O)NC3=O)c1)c1cccc(OC(F)(F)F)c1 | 6
12 | N#Cc1cccc(C(=O)Nc2cccc(Nc3cc4c(cc3Cl)C(=O)NC4=O)c2)c1 | 297
13 | Cn1nc(C(C)(C)C)cc1C(=O)Nc1cccc(Nc2cc3c(cc2Cl)C(=O)NC3=O)c1 | 349
14 | O=C(Nc1cccc(Nc2cc3c(=O)[nH][nH]c(=O)c3cc2Cl)c1)c1cccc(Cl)c1 | 35
15 | O=C(Nc1cccc(Nc2cc3c(=O)[nH][nH]c(=O)c3cc2Cl)c1)c1cccc(Br)c1 | 19
16 | O=C(Nc1cccc(Nc2cc3c(=O)[nH][nH]c(=O)c3cc2Cl)c1)c1cccc(I)c1 | 8
17 | O=C(Nc1cccc(Nc2cc3c(=O)[nH][nH]c(=O)c3cc2Cl)c1)c1cccc(C(F)(F)F)c1 | 17
18 | O=C(Nc1cccc(Nc2cc3c(=O)[nH][nH]c(=O)c3cc2Cl)c1)c1cccc(OC(F)(F)F)c1 | 18
19 | N#Cc1cccc(C(=O)Nc2cccc(Nc3cc4c(=O)[nH][nH]c(=O)c4cc3Cl)c2)c1 | 296
20 | Cn1nc(C(C)(C)C)cc1C(=O)Nc1cccc(Nc2cc3c(=O)[nH][nH]c(=O)c3cc2Cl)c1 | 293
